Source: patent US9248117B2, “Substituted N,N-dihaloamines as antimicrobials” (priority 2010, dated 2016)
≈ marks a conversion by molar mass, not a printed value.

Legend:
E. coli 25922 = experiment: MBC/MFC against E. coli 25922; format: cell-based; conditions: Escherichia coli
C. albicans 10231 = experiment: MBC/MFC against C. albicans 10231; format: cell-based; conditions: Candida albicans
S. aureus 29213 = experiment: MBC/MFC against S. aureus 29213; format: cell-based; conditions: Staphylococcus aureus
L929 cells = experiment: CT50 cytotoxicity in L929 cells; conditions: pH 7 phosphate

SMILES | MBC (E. coli 25922; pH 4 acetate, Table 3) [µg/mL] | MBC (E. coli 25922; pH 7 phosphate, Table 3) [µg/mL] | MFC (C. albicans 10231; pH 4 acetate, Table 3) [µg/mL] | MFC (C. albicans 10231; pH 7 phosphate, Table 3) [µg/mL] | MBC (S. aureus 29213; pH 4 acetate, Table 3) [µg/mL] | MBC (S. aureus 29213; pH 7 phosphate, Table 3) [µg/mL] | CT50 L929 cells (L929 cells; Table 3) [mM] | MBC (E. coli 25922; pH 4 acetate, Table 4) [µg/mL] | MBC (E. coli 25922; pH 7 phosphate, Table 4) [µg/mL] | MFC (C. albicans 10231; pH 4 acetate, Table 4) [µg/mL] | MFC (C. albicans 10231; pH 7 phosphate, Table 4) [µg/mL] | MBC (S. aureus 29213; pH 4 acetate, Table 4) [µg/mL] | MBC (S. aureus 29213; pH 7 phosphate, Table 4) [µg/mL] | CT50 L929 cells (L929 cells; Table 4) [mM]
CCOCCOCCOCCS(=O)(=O)CCC(C)(C)N(Cl)Cl [Compound 38-89, N,N-dichloro-4-(2-(2-(2-ethoxyethoxy)ethoxy)ethylsulfonyl)-2-methylbutan-2-amine] | 8 (≈ 21 µM) | 256 (≈ 673 µM) | 4 (≈ 10.5 µM) | 512 (≈ 1350 µM) | 8 (≈ 21 µM) | 128 (≈ 337 µM) | 0.06 |  |  |  |  |  |  | 
COCCOCCOCCOCCN1C(=O)C(C)(C)N(Cl)C1(C)C [Compound 39-12, 1-chloro-2,2,5,5-tetramethyl-3-(2,5,8,11-tetraoxatridecan-13-yl)imidazolidin-4-one] |  |  |  |  |  |  |  | 8 (≈ 21.8 µM) | 256 (≈ 698 µM) | 16 (≈ 43.6 µM) | > 1020 | 8 (≈ 21.8 µM) | 256 (≈ 698 µM) | 0.18
CC(C)(CCS(=O)(=O)CC(O)CO)N(Cl)Cl (stereo not drawn) [Compound 38-27, 3-(3-(Dichloroamino)-3-methylbutylsulfonyl)propane-1,2-diol] | 2 (≈ 6.8 µM) | 16 (≈ 54.4 µM) | > 256 | > 1020 | 2 (≈ 6.8 µM) | 4 (≈ 13.6 µM) | 0.13 |  |  |  |  |  |  | 
CC1(C)C(=O)N(CCCCO)C(C)(C)N1Cl [Compound 39-125, 1-chloro-3-(4-hydroxybutyl)-2,2,5,5-tetramethylimidazolidin-4-one] |  |  |  |  |  |  |  | 2 (≈ 8.04 µM) | 32 (≈ 129 µM) | 128 (≈ 515 µM) | > 1020 | 2 (≈ 8.04 µM) | 256 (≈ 1030 µM) | 2.21
CC1(C)C(=O)N(CC(O)CO)C(C)(C)N1Cl (stereo not drawn) [Compound 39-27, 1-chloro-3-(2,3-dihydroxypropyl)-2,2,5,5-tetramethylimidazolidin-4-one] |  |  |  |  |  |  |  | 4 (≈ 16 µM) | 512 (≈ 2040 µM) | 16 (≈ 63.8 µM) | > 2050 | 4 (≈ 16 µM) | 1020 (≈ 4080 µM) | 0.14
COCCC[N+](C)(C)CCC(C)(C)N(Cl)Cl [Compound 38-137, 3-(dichloroamino)-N-(3-methoxypropyl)-N,N,3-trimethylbutan-1-aminium chloride] | 8 | 512 | 32 | > 1020 | 4 | > 1020 | 1.62 |  |  |  |  |  |  | 
CN1CC(C)(CO)N(Cl)C1=O (stereo not drawn) [Compound 39-124, 3-chloro-4-(hydroxymethyl)-1,4-dimethylimidazolidin-2-one] |  |  |  |  |  |  |  | 16 (≈ 89.6 µM) | 8 (≈ 44.8 µM) | 8 (≈ 44.8 µM) | > 1020 | 16 (≈ 89.6 µM) | 32 (≈ 179 µM) | 0.33
CC(C)(CCS(=O)(=O)CCOCCOCCO)N(Cl)Cl [Compound 38-85, 2-(2-(2-(3-(Dichloroamino)-3-methylbutylsulfonyl)ethoxy)ethoxy)ethanol] | 4 (≈ 11.4 µM) | 64 (≈ 182 µM) | 32 (≈ 90.8 µM) | > 1020 | 4 (≈ 11.4 µM) | 64 (≈ 182 µM) | 0.04 |  |  |  |  |  |  | 
COCCN1C(=O)C(C)(C)N(Cl)C1(C)C [Compound 39-01, 1-chloro-3-(2-methoxyethyl)-2,2,5,5-tetramethylimidazolidin-4-one] |  |  |  |  |  |  |  | 2 (≈ 8.52 µM) | 128 (≈ 545 µM) | 8 (≈ 34.1 µM) | 256 (≈ 1090 µM) | 2 (≈ 8.52 µM) | 128 (≈ 545 µM) | 0.08
COCCOCCOCCS(=O)(=O)CC(C)(C)N(Cl)Cl [Compound 38-01, dichloro[1-({2-[2-(2-methoxyethoxy)ethoxy]ethane}sulfonyl)-2-methylpropan-2-yl]amine] | 2 (≈ 5.68 µM) | 256 (≈ 727 µM) | 32 (≈ 90.8 µM) | > 512 | 2 (≈ 5.68 µM) | 256 (≈ 727 µM) | 0.06 |  |  |  |  |  |  | 
CC(C)(CCS(=O)(=O)CCOCCS(=O)(=O)O)N(Cl)Cl [Compound 38-83, 2-(2-(3-(dichloroamino)-3-methylbutylsulfonyl)ethoxy)ethanesulfonic acid] | 2 (≈ 5.37 µM) | 128 (≈ 344 µM) | 128 (≈ 344 µM) | > 1020 | 1 (≈ 2.69 µM) | 256 (≈ 688 µM) | 1.74 |  |  |  |  |  |  | 
COCCOCCOCCCN1C(=O)C(C)(C)N(Cl)C1(C)C [Compound 39-114, 1-chloro-3-(3-(2-(2-methoxyethoxy)ethoxy)propyl)-2,2,5,5-tetramethylimidazolidin-4-one] |  |  |  |  |  |  |  | 8 (≈ 23.7 µM) | 256 (≈ 760 µM) | 8 (≈ 23.7 µM) | > 1020 | 4 (≈ 11.9 µM) | 256 (≈ 760 µM) | 0.24
COCCOCCOCCOCCOCCOCCOCCOCCOCCOCCOCCOCCOCCOCCN1C(=O)C(C)(C)N(Cl)C1(C)C [Compound 39-116, 1-chloro-2,2,5,5-tetramethyl-3-(2,5,8,11,14,17,20,23,26,29,32,35,38,41-tetradecaoxatritetracontan-43-yl)imidazolidin-4-one] |  |  |  |  |  |  |  | 16 (≈ 19.8 µM) | 512 (≈ 634 µM) | 128 (≈ 159 µM) | > 2050 | 16 (≈ 19.8 µM) | 1020 (≈ 1270 µM) | 4.1
COCCOCCOCC[N+](C)(C)CCC(C)(C)N(Cl)Cl [Compound 38-45, 3-(dichloroamino)-N-(2-(2-(2-methoxyethoxy)ethoxy)ethyl)-N,N,3-trimethylbutan-1-aminium 4-methylbenzenesulfonate] | 4 | 1020 | 64 | > 2050 | 4 | 1020 | 3.2 |  |  |  |  |  |  | 
CC(C)(CC[N+](C)(C)CCCO)N(Cl)Cl [Compound 38-151, 3-(dichloroamino)-N-(3-hydroxypropyl)-N,N,3-trimethylbutan-1-aminium] | 4 | 1020 | 64 | > 1020 | 4 | > 2050 | 0.12 |  |  |  |  |  |  | 
